Measured values: PubChem BioAssay AID248 (DTP/NCI, 2004)
“And” between values parts separate entries of the source, which are not always exact repeats. Equal entries are not always repeated. Toxic doses and inconclusive results are not listed.

Test system: L1210 leukemia ip in BDF1 mice, survival T/C
Experiment: NCI In Vivo Anticancer Drug Screen. Data for tumor model L1210 Leukemia (intraperitoneal) in B6D2F1 (BDF1) mice
Settings: endpoint: mean survival time, higher = longer survival
Method in brief: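 Value reflects the ratio of survival in compound-treated mice to survival in vehicle-treated controls, with both groups carrying the same transplanted tumor.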

[1] = dose: 50.0 mg/kg/injection, schedule: Q01DX009 (ip), vehicle: Klucel (hydroxypropylcellulose) (HPC)
[2] = dose: 100.0 mg/kg/injection, schedule: Q01DX009 (ip), vehicle: Klucel (hydroxypropylcellulose) (HPC)
[3] = dose: 100.0 mg/kg/injection, schedule: Q04DX003 (ip), vehicle: Klucel (hydroxypropylcellulose) (HPC)
[4] = dose: 200.0 mg/kg/injection, schedule: Q01DX009 (ip), vehicle: Klucel (hydroxypropylcellulose) (HPC)
[5] = dose: 200.0 mg/kg/injection, schedule: Q04DX003 (ip), vehicle: Klucel (hydroxypropylcellulose) (HPC)
[6] = dose: 400.0 mg/kg/injection, schedule: Q01DX009 (ip), vehicle: Klucel (hydroxypropylcellulose) (HPC)
[7] = dose: 400.0 mg/kg/injection, schedule: Q04DX003 (ip), vehicle: Klucel (hydroxypropylcellulose) (HPC)
[8] = dose: 100.0 mg/kg/injection, schedule: Q04DX003 (ip), vehicle: other
[9] = dose: 200.0 mg/kg/injection, schedule: Q04DX003 (ip), vehicle: other
[10] = dose: 400.0 mg/kg/injection, schedule: Q04DX003 (ip), vehicle: other
[11] = dose: 100.0 mg/kg/injection, schedule: Q04DX003 (ip), vehicle: saline with Tween-80
[12] = dose: 200.0 mg/kg/injection, schedule: Q04DX003 (ip), vehicle: saline with Tween-80
[13] = dose: 400.0 mg/kg/injection, schedule: Q04DX003 (ip), vehicle: saline with Tween-80
[14] = dose: 100.0 mg/kg/injection, schedule: Q01DX001 (ip), vehicle: saline
[15] = dose: 200.0 mg/kg/injection, schedule: Q01DX001 (ip), vehicle: saline

## CNC(=N)c1ccc(NC(=N)c2ccc(NC(=O)Nc3ccc(NC(=O)Nc4ccc(C(=N)Nc5ccc(C(=N)NC)cc5)cc4)cc3)cc2)cc1
dose: 0.5 mg/kg/injection, schedule: Q01DX015 (ip), vehicle: water
  T/C: 103 % of control
dose: 1.0 mg/kg/injection, schedule: Q01DX015 (ip), vehicle: water
  T/C: 116 % of control
dose: 2.0 mg/kg/injection, schedule: Q01DX015 (ip), vehicle: water
  T/C: 152 % of control
dose: 5.0 mg/kg/injection, schedule: Q01DX Z (ip), vehicle: water
  T/C: 156 % of control
dose: 7.5 mg/kg/injection, schedule: Q01DX Z (ip), vehicle: water
  T/C: 180 % of control
dose: 10.0 mg/kg/injection, schedule: Q01DX Z (ip), vehicle: water
  T/C: 150 % of control
dose: 15.0 mg/kg/injection, schedule: Q01DX Z (ip), vehicle: water
  T/C: 161 % of control
dose: 20.0 mg/kg/injection, schedule: Q01DX Z (ip), vehicle: water
  T/C: 104 % of control
dose: 30.0 mg/kg/injection, schedule: Q01DX Z (ip), vehicle: water
  T/C: 87 % of control
dose: 35.7 mg/kg/injection, schedule: Q01DX Z (ip), vehicle: water
  T/C: 101 % of control

## CCSCCOP(=O)(N(C)C)N(C)C
dose: 25.0 mg/kg/injection, schedule: Q04DX002 (ip), vehicle: Klucel (hydroxypropylcellulose) (HPC)
  T/C: 96 % of control
dose: 50.0 mg/kg/injection, schedule: Q04DX002 (ip), vehicle: Klucel (hydroxypropylcellulose) (HPC)
  T/C: 96 % of control
dose: 100.0 mg/kg/injection, schedule: Q04DX002 (ip), vehicle: Klucel (hydroxypropylcellulose) (HPC)
  T/C: 93 % of control and 98 % of control

## O=C(OCC(Cl)(Cl)Cl)c1ccc(Cl)cc1
dose: 100.0 mg/kg/injection, schedule: Q04DX002 (ip), vehicle: other
  T/C: 97 % of control
dose: 200.0 mg/kg/injection, schedule: Q04DX002 (ip), vehicle: other
  T/C: 97 % of control
dose: 400.0 mg/kg/injection, schedule: Q04DX002 (ip), vehicle: other
  T/C: 97 % of control

## O=C(NN(c1ccc([N+](=O)[O-])cc1)c1ccc([N+](=O)[O-])cc1)c1ccccc1
[1]
  T/C: 103 % of control
[2]
  T/C: 100 % of control
[3]
  T/C: 94 % of control
[4]
  T/C: 102 % of control
[5]
  T/C: 93 % of control
[6]
  T/C: 102 % of control
[7]
  T/C: 94 % of control

## CCOC(=O)CC(NC(=O)N(CCCl)CCCl)C(=O)OCC (stereo not drawn)
dose: 62.5 mg/kg/injection, schedule: Q01DX Z (ip), vehicle: water
  T/C: 101 % of control
dose: 125.0 mg/kg/injection, schedule: Q01DX Z (ip), vehicle: water
  T/C: 108 % of control
dose: 250.0 mg/kg/injection, schedule: Q01DX Z (ip), vehicle: water
  T/C: 111 % of control

## Cc1ccc(S(=O)(=O)N(C)c2ccccc2C(=O)O)cc1
[3]
  T/C: 104 % of control
[5]
  T/C: 97 % of control
[7]
  T/C: 95 % of control

## CN(C)N=Nc1ccccc1C(=O)O
dose: 0.78 mg/kg/injection, schedule: Q01DX009 (ip), vehicle: Klucel (hydroxypropylcellulose) (HPC)
  T/C: 105 % of control
dose: 1.56 mg/kg/injection, schedule: Q01DX009 (ip), vehicle: Klucel (hydroxypropylcellulose) (HPC)
  T/C: 97 % of control
dose: 3.12 mg/kg/injection, schedule: Q01DX009 (ip), vehicle: Klucel (hydroxypropylcellulose) (HPC)
  T/C: 103 % of control
dose: 6.25 mg/kg/injection, schedule: Q01DX009 (ip), vehicle: Klucel (hydroxypropylcellulose) (HPC)
  T/C: 103 % of control
dose: 11.0 mg/kg/injection, schedule: Q01DX009 (ip), vehicle: saline with Tween-80
  T/C: 109 % of control
dose: 12.5 mg/kg/injection, schedule: Q01DX001 (ip), vehicle: saline with Tween-80
  T/C: 95 % of control
dose: 12.5 mg/kg/injection, schedule: Q01DX009 (ip), vehicle: saline with Tween-80
  T/C: 123 % of control
dose: 12.5 mg/kg/injection, schedule: Q04DX003 (ip), vehicle: saline with Tween-80
  T/C: 101 % of control
dose: 17.0 mg/kg/injection, schedule: Q01DX009 (ip), vehicle: saline with Tween-80
  T/C: 107 % of control
dose: 25.0 mg/kg/injection, schedule: Q01DX001 (ip), vehicle: saline with Tween-80
  T/C: 98 % of control
dose: 25.0 mg/kg/injection, schedule: Q01DX009 (ip), vehicle: saline with Tween-80
  T/C: 115 % of control
dose: 25.0 mg/kg/injection, schedule: Q04DX003 (ip), vehicle: other
  T/C: 115 % of control
dose: 25.0 mg/kg/injection, schedule: Q04DX003 (ip), vehicle: saline with Tween-80
  T/C: 104 % of control
dose: 37.0 mg/kg/injection, schedule: Q01DX009 (ip), vehicle: saline with Tween-80
  T/C: 91 % of control
dose: 50.0 mg/kg/injection, schedule: Q01DX001 (ip), vehicle: saline with Tween-80
  T/C: 101 % of control
dose: 50.0 mg/kg/injection, schedule: Q04DX003 (ip), vehicle: other
  T/C: 105 % of control
dose: 50.0 mg/kg/injection, schedule: Q04DX003 (ip), vehicle: saline with Tween-80
  T/C: 103 % of control
[8]
  T/C: 111 % of control
[9]
  T/C: 113 % of control
[10]
  T/C: 100 % of control

## O=[N+]([O-])c1ccc(N=C(Nc2ccc([N+](=O)[O-])cc2)c2ccccc2)cc1
dose: 100.0 mg/kg/injection, schedule: Q01DX009 (ip), vehicle: other
  T/C: 92 % of control
[8]
  T/C: 96 % of control
dose: 200.0 mg/kg/injection, schedule: Q01DX009 (ip), vehicle: other
  T/C: 101 % of control
[9]
  T/C: 102 % of control
dose: 400.0 mg/kg/injection, schedule: Q01DX009 (ip), vehicle: other
  T/C: 97 % of control
[10]
  T/C: 91 % of control

## O=C(Nc1ccc(C(=O)O)cc1)Nc1ccccc1F
[1]
  T/C: 93 % of control
[2]
  T/C: 104 % of control

## CCCCCCCCCCCCNc1ccccn1
[11]
  T/C: 88 % of control
[12]
  T/C: 94 % of control
[13]
  T/C: 96 % of control

## NC(=S)c1ccc(S(=O)(=O)Nc2cccc(Br)c2)cc1
[11]
  T/C: 103 % of control
[12]
  T/C: 103 % of control
[13]
  T/C: 97 % of control

## O=C(/C=C(\C(=O)c1ccccc1)c1ccccc1)c1ccccc1
dose: 50.0 mg/kg/injection, schedule: Q04DX003 (ip), vehicle: Klucel (hydroxypropylcellulose) (HPC)
  T/C: 95 % of control
[14]
  T/C: 92 % of control
[2]
  T/C: 95 % of control
[3]
  T/C: 101 % of control
dose: 200.0 mg/kg/injection, schedule: Q01DX001 (ip), vehicle: saline with Tween-80
  T/C: 90 % of control
[15]
  T/C: 95 % of control
[4]
  T/C: 102 % of control
[5]
  T/C: 102 % of control
[6]
  T/C: 98 % of control

## CC(=O)C1CCC2C3=CC=C4CC(OC(=O)C5CCCCC5)CCC4(C)C3=CCC12C (stereo not drawn)
dose: 100.0 mg/kg/injection, schedule: Q01DX009 (ip), vehicle: saline with Tween-80
  T/C: 100 % of control
dose: 200.0 mg/kg/injection, schedule: Q01DX009 (ip), vehicle: saline with Tween-80
  T/C: 89 % of control
dose: 400.0 mg/kg/injection, schedule: Q01DX009 (ip), vehicle: saline with Tween-80
  T/C: 108 % of control

## COC1OCC(O)C(N)C1O (stereo not drawn)
[14]
  T/C: 102 % of control and 95 % of control
[15]
  T/C: 102 % of control and 104 % of control and 106 % of control
dose: 400.0 mg/kg/injection, schedule: Q01DX001 (ip), vehicle: saline
  T/C: 87 % of control and 98 % of control and 92 % of control

## Cc1ccc(C(=O)O)cn1
dose: 100.0 mg/kg/injection, schedule: Q01DX009 (ip), vehicle: saline
  T/C: 97 % of control
dose: 100.0 mg/kg/injection, schedule: Q04DX003 (ip), vehicle: saline
  T/C: 97 % of control
dose: 200.0 mg/kg/injection, schedule: Q01DX009 (ip), vehicle: saline
  T/C: 98 % of control
dose: 200.0 mg/kg/injection, schedule: Q04DX003 (ip), vehicle: saline
  T/C: 113 % of control
dose: 400.0 mg/kg/injection, schedule: Q01DX009 (ip), vehicle: saline
  T/C: 97 % of control
dose: 400.0 mg/kg/injection, schedule: Q04DX003 (ip), vehicle: saline
  T/C: 105 % of control

## C=CCSc1ccc([N+](=O)[O-])cc1
dose: 50.0 mg/kg/injection, schedule: Q01DX001 (ip), vehicle: carboxymethylcellulose (CMC)
  T/C: 101 % of control
dose: 100.0 mg/kg/injection, schedule: Q01DX001 (ip), vehicle: carboxymethylcellulose (CMC)
  T/C: 95 % of control
dose: 200.0 mg/kg/injection, schedule: Q01DX001 (ip), vehicle: carboxymethylcellulose (CMC)
  T/C: 104 % of control
dose: 400.0 mg/kg/injection, schedule: Q01DX001 (ip), vehicle: carboxymethylcellulose (CMC)
  T/C: 98 % of control
